Data as given in patent US12600728B2, “Interleukin-17 inhibitors” (priority 2020, dated 2026).
Where two headings read alike, the source gives them in different places.

Tests used:
[1] = molecular target: recombinant human IL-17AA (Homo sapiens, UniProt Q16552); assay: IL-6 release from NHDF cells, IL-17AA plus TNF-α stimulation; assay type: cell-based; conditions: NHDF cells, 24 hours, IL-6 by ELISA, read-out: IL17AA + TNF IC50 IL-6
Method in brief: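 IL-17-specific IL-6 release from NHDF cells adhered overnight; compounds pre-incubated 30 min at room temperature with human IL-17AA plus TNF-α, then 24 h on cells at 37° C. Final DMSO 0.1% or plasma 20%; IL-6 by ELISA (450 nm). TNF-α-only IL-6 subtracted before IC50 fit.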

[2] = molecular target: biotinylated human IL-17A / AF647-labeled human IL-17RA (Homo sapiens, UniProt Q16552); assay: Human IL-17A×IL-17RA TR-FRET assay; assay type: binding; conditions: TR-FRET, read-out: IL17AA FRET/ IL17Rawt IC50
Method in brief: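 Compounds tested in duplicate at each concentration; neutral controls contain all components with DMSO in place of compound.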

[3] = biotinylated human IL-17A 5 nM, AF647-labeled human IL-17RA 30 nM

Sequence of biotinylated human IL-17A / AF647-labeled human IL-17RA (Q16552 24-155): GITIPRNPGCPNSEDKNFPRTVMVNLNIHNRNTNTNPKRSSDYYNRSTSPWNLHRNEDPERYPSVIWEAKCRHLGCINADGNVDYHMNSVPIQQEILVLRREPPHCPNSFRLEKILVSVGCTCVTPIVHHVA
Sequence of recombinant human IL-17AA (Q16552 24-155): as above

SMILES	IC50 ([1]; IL-17AA 30 pM plus TNF-α 6 pM) [µM]	IC50 [2, 3] [µM]	IC50 ([1]; IL-17AA 30 pM + TNF-α 6 pM) [µM]	IC50 ([2]; 5 nM IL-17A, 30 nM IL-17RA) [µM]
CCc1nocc1C(=O)N[C@H](C(=O)Nc1ccc(-c2c(C)cc[n+]([O-])c2C)cc1)C1CCC(F)(F)C1 (mixture of isomers) [Example 86, 3-(4-((2S)-2-(3,3-difluorocyclopentyl)-2-(3-ethylisoxazole-4-carboxamido)acetamido)phenyl)-2,4-dimethylpyridine 1-oxide]	0.232	0.119	–	–
Cc1c(-c2ccc(NC(=O)[C@@H](NC(=O)c3ccnn3CCN(C)C)C3CCCCC3)cc2F)c(Cl)cc[n+]1[O-] [Example 77, 4-chloro-3-(4-((S)-2-cyclohexyl-2-(1-(2-(dimethylamino)ethyl)-1H-pyrazole-5-carboxamido)acetamido)-2-fluorophenyl)-2-methylpyridine 1-oxide]	0.151	0.436	–	–
Cc1cc[n+]([O-])c(C)c1-c1ccc(NC(=O)[C@@H](NC(=O)c2ccc3n2CCNC3)C2CCCCC2)cc1 [Example 205, (S)-3-(4-(2-cyclohexyl-2-(1,2,3,4-tetrahydropyrrolo[1,2-a]pyrazine-6-carboxamido)acetamido)phenyl)-2,4-dimethylpyridine 1-oxide]	–	–	0.058	0.287
CCn1nccc1C(=O)NC(C(=O)Nc1ccc(-c2c(Cl)cc[n+]([O-])c2C)cc1)C1CC2CC2C1 (single isomer, unassigned) [Example 209]	–	–	0.175	0.381
Cc1c(-c2ccc(NC(=O)[C@@H](NC(=O)c3ccc4n3CCN(C)C4)C3CCC(F)(F)CC3)cc2)c(Cl)cc[n+]1[O-] [Example 123, (S)-4-chloro-3-(4-(2-(4,4-difluorocyclohexyl)-2-(2-methyl-1,2,3,4-tetrahydropyrrolo[1,2-a]pyrazine-6-carboxamido)acetamido)phenyl)-2-methylpyridine 1-oxide]	0.059	0.15	–	–
Cc1cc[n+]([O-])c(C)c1-c1ccc(NC(=O)C(NC(=O)c2ccc3n2CCNC3)C2CC3CC3C2)cc1 [Example 201, 3-(4-((S)-2-((1R,3r,5S)-bicyclo[3.1.0]hexan-3-yl)-2-(1,2,3,4-tetrahydropyrrolo[1,2-a]pyrazine-6-carboxamido)acetamido)phenyl)-2,4-dimethylpyridine 1-oxide]	–	–	0.061	0.252
Cc1cc[n+]([O-])c(C)c1-c1ccc(NC(=O)[C@H](Cc2ccccc2Cl)NC(=O)c2ccc3n2CCN(C)C3)cc1 [Example 130, (S)-3-(4-(3-(2-chlorophenyl)-2-(2-methyl-1,2,3,4-tetrahydropyrrolo[1,2-a]pyrazine-6-carboxamido)propanamido)phenyl)-2,4-dimethylpyridine 1-oxide]	0.956	0.124	–	–
CCc1nocc1C(=O)N[C@H](C(=O)Nc1ccc(-c2c(C(F)(F)F)cc[n+]([O-])c2C)cc1)[C@H]1CCCC(F)(F)C1 [Example 26, 3-(4-((S)-2-((S)-3,3-difluorocyclohexyl)-2-(3-ethylisoxazole-4-carboxamido)acetamido)phenyl)-2-methyl-4-(trifluoromethyl)pyridine 1-oxide]	0.014	0.044	–	–
Cc1cc(-c2ccc(NC(=O)[C@@H](NC(=O)c3ccnn3C)C3CCCCC3)cc2)c(C)[n+]([O-])c1 [Example 113, (S)-3-(4-(2-cyclohexyl-2-(1-methyl-1H-pyrazole-5-carboxamido)acetamido)phenyl)-2,5-dimethylpyridine 1-oxide]	0.038	0.339	–	–
CCc1nocc1C(=O)NC(C(=O)Nc1ccc(-c2c(C)cc[n+]([O-])c2C)cc1)C1CCC(C(F)(F)F)CC1 [Example 8, 3-(4-((S)-2-(3-ethylisoxazole-4-carboxamido)-2-((1r,4S)-4-(trifluoromethyl)cyclohexyl)acetamido)phenyl)-2,4-dimethylpyridine 1-oxide]	0.004	0.041	–	–
Cc1nocc1C(=O)N[C@H](C(=O)Nc1ccc(-c2c(C(F)(F)F)cc[n+]([O-])c2C)cc1)C1CCCC1 [Example 22, (S)-3-(4-(2-cyclopentyl-2-(3-methylisoxazole-4-carboxamido)acetamido)phenyl)-2-methyl-4-(trifluoromethyl)pyridine 1-oxide]	0.066	0.059	–	–
Cc1c(-c2ccc(NC(=O)C(NC(=O)c3ccnn3C(C)C)C3CCCC(F)(F)C3)cc2)c(Cl)cc[n+]1[O-] (stereo not drawn) [Example 158, 4-chloro-3-(4-(2-(3,3-difluorocyclohexyl)-2-(1-isopropyl-1H-pyrazole-5-carboxamido)acetamido)phenyl)-2-methylpyridine 1-oxide]	–	–	0.0155	< 0.0061
Cc1nocc1C(=O)N[C@H](C(=O)Nc1ccc(-c2c(Cl)cc[n+]([O-])c2C)cc1)C1CCC(F)(F)CC1 [Example 49, (S)-4-chloro-3-(4-(2-(4,4-difluorocyclohexyl)-2-(3-methylisoxazole-4-carboxamido)acetamido)phenyl)-2-methylpyridine 1-oxide]	0.031	0.058	–	–
CCc1nocc1C(=O)NC(C(=O)Nc1ccc(-c2c(Cl)cc[n+]([O-])c2C)cc1)C1CCC(F)(F)CC1 (stereo not drawn) [Example 51, 4-chloro-3-(4-(2-(4,4-difluorocyclohexyl)-2-(3-ethylisoxazole-4-carboxamido)acetamido)phenyl)-2-methylpyridine 1-oxide]	0.062	0.066	–	–
COCc1nocc1C(=O)N[C@H](C(=O)Nc1ccc(-c2c(Cl)cc[n+]([O-])c2C)c(F)c1)C1CCC(F)(F)CC1 [Example 163, 4-chloro-3-(4-((S)-2-(4,4-difluorocyclohexyl)-2-(3-(methoxymethyl)isoxazole-4-carboxamido)acetamido)-2-fluorophenyl)-2-methylpyridine 1-oxide]	–	–	0.068	0.191
COCc1nocc1C(=O)N[C@H](C(=O)Nc1ccc(-c2c(Cl)cc[n+]([O-])c2C)c(F)c1)C1CCCCC1 [Example 90, 4-chloro-3-(4-((S)-2-cyclohexyl-2-(3-(methoxymethyl)isoxazole-4-carboxamido)acetamido)-2-fluorophenyl)-2-methylpyridine 1-oxide]	0.005	0.065	–	–
Cc1nocc1C(=O)N[C@H](C(=O)Nc1ccc(-c2c(Cl)cc[n+]([O-])c2C)c(F)c1)C1CCC(F)(F)CC1 [Example 106, 4-chloro-3-(4-((S)-2-(4,4-difluorocyclohexyl)-2-(3-methylisoxazole-4-carboxamido)acetamido)-2-fluorophenyl)-2-methylpyridine 1-oxide]	0.018	0.05	–	–
Cc1c(-c2ccc(NC(=O)[C@@H](NC(=O)c3ccc4n3CCN(C)C4)C3CCC(F)(F)CC3)cc2F)c(Cl)cc[n+]1[O-] [Example 164, 4-chloro-3-(4-((S)-2-(4,4-difluorocyclohexyl)-2-(2-methyl-1,2,3,4-tetrahydropyrrolo[1,2-a]pyrazine-6-carboxamido)acetamido)-2-fluorophenyl)-2-methylpyridine 1-oxide]	–	–	0.045	0.199
Cc1c(-c2ccc(NC(=O)[C@@H](NC(=O)c3ccnn3C)C3CCCCC3)c(F)c2F)c(Cl)cc[n+]1[O-] [Example 62, 4-chloro-3-(4-((S)-2-cyclohexyl-2-(1-methyl-1H-pyrazole-5-carboxamido)acetamido)-2,3-difluorophenyl)-2-methylpyridine 1-oxide]	0.007	0.015	–	–
Cc1nocc1C(=O)NC(C(=O)Nc1ccc(-c2c(Cl)cc[n+]([O-])c2C)cc1)C1CCC(C(F)(F)F)CC1 [Example 19, 4-chloro-2-methyl-3-(4-((S)-2-(3-methylisoxazole-4-carboxamido)-2-((1r,4S)-4-(trifluoromethyl)cyclohexyl)acetamido)phenyl)pyridine 1-oxide]	0.02	0.026	–	–
Cc1cc[n+]([O-])c(C)c1-c1ccc(NC(=O)[C@@H](NC(=O)c2ccnn2C(C)C)[C@H]2CCCc3ccccc32)cc1 [Example 50, 3-(4-((S)-2-(1-isopropyl-1H-pyrazole-5-carboxamido)-2-((S)-1,2,3,4-tetrahydronaphthalen-1-yl)acetamido)phenyl)-2,4-dimethylpyridine 1-oxide]	0.001	0.023	–	–
COCc1nocc1C(=O)NC(C(=O)Nc1ccc(-c2c(C)cc[n+]([O-])c2C)cc1)C1CCC(C(F)(F)F)CC1 [Example 25, 3-(4-((S)-2-(3-(methoxymethyl)isoxazole-4-carboxamido)-2-((1r,4S)-4-(trifluoromethyl)cyclohexyl)acetamido)phenyl)-2,4-dimethylpyridine 1-oxide]	0.069	0.178	–	–
Cc1c(-c2ccc(NC(=O)[C@@H](NC(=O)c3ccnn3C)[C@H]3CCCC(F)(F)C3)cc2)c(C(F)(F)F)cc[n+]1[O-] [Example 183, 3-(4-((S)-2-((S)-3,3-difluorocyclohexyl)-2-(1-methyl-1H-pyrazole-5-carboxamido)acetamido)phenyl)-2-methyl-4-(trifluoromethyl)pyridine 1-oxide]	–	–	0.042	0.0541
Cc1c(-c2ccc(NC(=O)[C@@H](NC(=O)c3ccc4n3CCNC4)C3CCC(F)(F)CC3)cc2F)c(Cl)cc[n+]1[O-] [Example 179, 4-chloro-3-(4-((S)-2-(4,4-difluorocyclohexyl)-2-(1,2,3,4-tetrahydropyrrolo[1,2-a]pyrazine-6-carboxamido)acetamido)-2-fluorophenyl)-2-methylpyridine 1-oxide]	–	–	0.06	0.0139
